The results in this text go back to ChEMBL document CHEMBL4831557, “Parthenolide Derivatives as PKM2 Activators Showing Potential in Colorectal Cancer” (J Med Chem, 2021).

In general, IC50 refers to the concentration needed to halve the response being measured.

The target in one data set is Pyruvate kinase PKM (Homo sapiens, UniProt P14618). The data set can be described thus: Activation of recombinant human PKM2 at 10 uM incubated 30 mins by fluorescence microplate reader analysis. Particulars: filed as activator.
Pyruvate kinase PKM, sequence (P14618 2-531 limits assumed): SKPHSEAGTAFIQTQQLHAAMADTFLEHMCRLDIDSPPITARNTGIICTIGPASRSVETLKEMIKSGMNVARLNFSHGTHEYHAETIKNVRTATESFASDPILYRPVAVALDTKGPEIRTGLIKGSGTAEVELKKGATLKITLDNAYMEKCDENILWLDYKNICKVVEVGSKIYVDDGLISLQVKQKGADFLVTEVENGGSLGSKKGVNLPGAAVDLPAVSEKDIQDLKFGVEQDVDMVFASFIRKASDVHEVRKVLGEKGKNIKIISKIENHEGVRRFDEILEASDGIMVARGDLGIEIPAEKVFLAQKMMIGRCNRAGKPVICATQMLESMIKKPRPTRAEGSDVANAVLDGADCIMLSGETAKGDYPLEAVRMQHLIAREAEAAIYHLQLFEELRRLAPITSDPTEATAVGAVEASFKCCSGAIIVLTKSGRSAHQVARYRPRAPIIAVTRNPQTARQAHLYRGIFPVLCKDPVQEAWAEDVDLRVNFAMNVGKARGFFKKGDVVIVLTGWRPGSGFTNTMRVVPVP
In the next data set the test system is HT-29. The data set can be described thus: Cytotoxicity against human HT-29 cells assessed as reduction in cell viability incubated for 48 hrs by MTT assay. In kind it is functional, cell-based. Conditions: HT-29, 48 h. A general note: Tetrazolium dyes change colour on reduction, which living cells bring about.
For the next data set, the system named is SW480. The data set can be described thus: Cytotoxicity against human SW480 cells assessed as reduction in cell viability incubated for 48 hrs by MTT assay. In kind it is functional, cell-based. Conditions: SW480, 48 h.
A further data set has as its system HCT-116. The data set can be described thus: Cytotoxicity against human HCT-116 cells assessed as reduction in cell viability incubated for 48 hrs by MTT assay. In kind it is functional, cell-based. Particulars: HCT-116, 48 h.
The next data set relates to U2OS. As to the kind of experiment: Cytotoxicity against human U2OS cells assessed as reduction in cell viability incubated for 48 hrs by MTT assay. In kind it is functional, cell-based.
The next data set has as its system HepG2. The data set can be described thus: Cytotoxicity against human HepG2 cells assessed as reduction in cell viability incubated for 48 hrs by MTT assay. In kind it is functional, cell-based. Conditions: HepG2, 48 h.
The next data set has as its system MDA-MB-231. As to the kind of experiment: Cytotoxicity against human MDA-MB-231 cells assessed as reduction in cell viability incubated for 48 hrs by MTT assay. In kind it is functional, cell-based. Particulars: MDA-MB-231, 48 h.
The test system of another data set is A549. The data set can be described thus: cells. Particulars: Homo sapiens, A549, 48 h.
The subject of another data set is NCM460. The data set can be described thus: Cytotoxicity against human NCM460 cells assessed as reduction in cell viability incubated for 48 hrs by MTT assay. Particulars: NCM460, 48 h. In kind it is cell-based.
Data set [1] is described as follows: Selectivity index, ratio of IC50 for human NCM460 cells to IC50 for human HT-29 cells. In kind it is toxicity. Conditions: NCM460 cells versus HT-29 cells, read-out: Ratio IC50.
A short description of data set [2]: Selectivity index, ratio of IC50 for human NCM460 cells to IC50 for human SW480 cells.

Structures are written as SMILES. Calls of active or inactive are those of the source. The rule behind the calls is not given here.

Consider `C=C1C(=O)O[C@H]2[C@H]1CC/C(COC(=O)c1ccc3ncccc3c1)=C/CC[C@@]1(C)O[C@@H]21`, for which the result at Pyruvate kinase PKM was Active. Further, the IC50 in the data set on HT-29 is 1.33 µM; in the data set with SW480 it was 0.29 µM; in the data set on HCT-116, 1.6 µM; in the data set on U2OS, 3.11 µM; in the data set with HepG2 it was 6.6 µM; in the data set on MDA-MB-231, 1.99 µM. This compound also had an IC50 with A549 of 3.18 µM.

As for `C=C1C(=O)O[C@@H]2C3O[C@]3(C)CC/C=C(\C)CC[C@@H]12` (stereo partly drawn), the IC50 in the data set with HT-29 came to 7.41 µM; with SW480, 3.56 µM; in the data set on HCT-116, 8.12 µM; in the data set with U2OS, 7 µM; with HepG2, 26.1 µM; with MDA-MB-231, 8.68 µM. The IC50 with NCM460 amounted to 2.78 µM; with A549, 10.3 µM. Further, the selectivity ratio in data set [1] was 0.38. The “Ratio IC50” value in data set [2] is 0.78.

In the case of `C=C1C(=O)O[C@H]2[C@H]1CC/C(COC(=O)c1cnc3ccccc3c1)=C/CC[C@@]1(C)O[C@@H]21`, the IC50 was determined as 2.43 µM in the data set with HT-29; 0.33 µM in the data set on SW480; 2.7 µM in the data set on HCT-116; 2.58 µM in the data set on U2OS; 9.53 µM in the data set with HepG2; 2.27 µM with MDA-MB-231. Besides, the IC50 with A549 stood at 2.45 µM.

Regarding `C=C1C(=O)O[C@H]2[C@H]1CC/C(COC(=O)c1ccc3nc(C)ccc3c1)=C/CC[C@@]1(C)O[C@@H]21`, the IC50 was determined as 1.61 µM in the data set with HT-29; 0.79 µM with SW480; 2.78 µM in the data set with HCT-116; 1.68 µM in the data set on U2OS; 7.79 µM with HepG2; 1.29 µM in the data set with MDA-MB-231. Moreover, half-maximal inhibition in the data set on A549 (IC50) was put at 1.34 µM.

As to `C=C1C(=O)O[C@H]2[C@H]1CC/C(COC(=O)c1ccc3nccnc3c1)=C/CC[C@@]1(C)O[C@@H]21`, the IC50 in the data set with HT-29 was determined as 2.52 µM; in the data set with SW480, 1.25 µM; in the data set with HCT-116, 2.82 µM; in the data set with U2OS it was 3.18 µM; in the data set with HepG2, 6.84 µM; with MDA-MB-231, 2.97 µM. For the same compound, in the data set with A549, the IC50 came to 2.2 µM.

For the compound `C=C1C(=O)O[C@H]2[C@H]1CC/C(COC(=O)CCc1n[nH]c(=O)c3ccccc13)=C/CC[C@@]1(C)O[C@@H]21`, the IC50 in the data set on HT-29 was 4.11 µM; with SW480, 1.45 µM; in the data set on HCT-116 it was 4.51 µM; with U2OS, 6.03 µM; in the data set with HepG2, 7.22 µM; in the data set with MDA-MB-231, 7.92 µM. The compound also displayed an IC50 with A549 of 13.5 µM.

As for `C=C1C(=O)O[C@H]2[C@H]1CC/C(COC(=O)c1ccc3nc(Cl)ccc3c1)=C/CC[C@@]1(C)O[C@@H]21`, the IC50 in the data set on HT-29 worked out at 1.42 µM; with SW480, 0.46 µM; in the data set on HCT-116 it was 1.77 µM; in the data set on U2OS it was 2.46 µM; with HepG2, 4.83 µM; in the data set with MDA-MB-231, 2.69 µM. In the data set on A549, the IC50 was found to be 1.75 µM.

Regarding `C/C1=C\CC[C@@]2(C)O[C@H]2[C@H]2OC(=O)/C(=C\c3ccc4ncccc4c3)[C@@H]2CC1`, the half-inhibitory concentration (IC50) came to 6.66 µM with HT-29; 2.71 µM in the data set on SW480; 6.55 µM in the data set with HCT-116; 2.78 µM in the data set with U2OS; 23.6 µM with HepG2; 12.5 µM with MDA-MB-231. Besides, in the data set on A549, the IC50 came to 16.8 µM.

For `C=C1C(=O)O[C@H]2[C@H]1CC/C(COC(=O)c1ccc3ncc(Br)cc3c1)=C/CC[C@@]1(C)O[C@@H]21`, the half-inhibitory concentration (IC50) came out at 0.79 µM with HT-29; 0.38 µM with SW480; 1.21 µM in the data set with HCT-116; 2.51 µM with U2OS; 4.5 µM in the data set on HepG2; 1.89 µM with MDA-MB-231. In the data set on A549, this compound showed an IC50 of 0.92 µM.

In the case of `C/C1=C\CC[C@@]2(C)O[C@H]2[C@H]2OC(=O)/C(=C\c3ccc4nc[nH]c(=O)c4c3)[C@@H]2CC1`, the IC50 in the data set on HT-29 was determined as 28.6 µM; in the data set with SW480 it was 34 µM; in the data set on HCT-116, 32.9 µM; in the data set with U2OS, 24.6 µM; with HepG2 it was 86.7 µM; in the data set with MDA-MB-231, 55.1 µM. Further, in the data set on A549, inhibition was half-maximal at 33.5 µM (IC50).

In the case of `C/C1=C\CC[C@@]2(C)O[C@H]2[C@H]2OC(=O)C(CN3CCCN(C(=O)c4ccc5ccccc5n4)CC3)[C@@H]2CC1` (stereo partly drawn), the IC50 in the data set with HT-29 came out at 39 µM; with SW480 it was 6.39 µM; with HCT-116 it was 50 µM; in the data set with U2OS, 11.1 µM; in the data set with HepG2, 59.6 µM; in the data set on MDA-MB-231, 71.7 µM. The same compound returned an IC50 with A549 of 27.3 µM.

Consider `C=C1C(=O)O[C@H]2[C@H]1CC[C@@]1(COC(=O)c3ccc4ncccc4c3)O[C@@H]1CC[C@@]1(C)O[C@@H]21`, for which the IC50 was 0.94 µM with HT-29; 2.4 µM in the data set on SW480; 1.8 µM with HCT-116; 6.43 µM in the data set with U2OS; 7.13 µM in the data set on HepG2; 6.61 µM in the data set with MDA-MB-231. Besides, in the data set on A549, the IC50 amounted to 6.69 µM.
